Measurements: paper PMC5078040 (Oncotarget, 2016)

Assays:
Test in all cases: KinomeScan
Assay type in all cases: binding
Conditions in all cases: 1uM
[1] = molecular target: T1, BRAF(V600E) (Homo sapiens, UniProt P15056, V600E)
T1 construct: purchased DiscoveRx KINOMEscan

[2] = molecular target: T2, MEK2 (Homo sapiens, UniProt P36507)
T2 construct: purchased DiscoveRx KINOMEscan

[3] = molecular target: T3, SRC (Homo sapiens, UniProt P12931)
T3 construct: purchased DiscoveRx KINOMEscan

[4] = molecular target: T4, DDR1 (Homo sapiens, UniProt Q08345)
T4 construct: purchased DiscoveRx KINOMEscan

[5] = molecular target: T5, CSNK1G3 (Homo sapiens, UniProt Q9Y6M4)
T5 construct: purchased DiscoveRx KINOMEscan

[6] = molecular target: T6, ERK5 (Homo sapiens, UniProt Q13164)
T6 construct: purchased DiscoveRx KINOMEscan

[7] = molecular target: T7, VEGFR2 (Homo sapiens, UniProt P35968)
T7 construct: purchased DiscoveRx KINOMEscan

[8] = molecular target: T8, PIK3CA(Q546K) (Homo sapiens, UniProt P42336, Q546K)
T8 construct: purchased DiscoveRx KINOMEscan

[9] = molecular target: T9, HIPK3 (Homo sapiens, UniProt Q9H422)
T9 construct: purchased DiscoveRx KINOMEscan

[10] = molecular target: T10, LZK (Homo sapiens, UniProt O43283)
T10 construct: purchased DiscoveRx KINOMEscan

[11] = molecular target: T11, GAK (Homo sapiens, UniProt O14976)
T11 construct: purchased DiscoveRx KINOMEscan

[12] = molecular target: T12, CDK11 (Homo sapiens, UniProt Q9BWU1)
T12 construct: purchased DiscoveRx KINOMEscan

[13] = molecular target: T13, TNK1 (Homo sapiens, UniProt Q13470)
T13 construct: purchased DiscoveRx KINOMEscan

[14] = molecular target: T14, CAMK4 (Homo sapiens, UniProt Q16566)
T14 construct: purchased DiscoveRx KINOMEscan

[15] = molecular target: T15, YANK1 (Homo sapiens, UniProt Q8WU08)
T15 construct: purchased DiscoveRx KINOMEscan

[16] = molecular target: T16, p38-delta (Homo sapiens, UniProt O15264)
T16 construct: purchased DiscoveRx KINOMEscan

[17] = molecular target: T17, TGFBR2 (Homo sapiens, UniProt P37173)
T17 construct: purchased DiscoveRx KINOMEscan

[18] = molecular target: T18, MKK7 (Homo sapiens, UniProt O14733)
T18 construct: purchased DiscoveRx KINOMEscan

[19] = molecular target: T19, DAPK1 (Homo sapiens, UniProt P53355)
T19 construct: purchased DiscoveRx KINOMEscan

[20] = molecular target: T20, TLK2 (Homo sapiens, UniProt Q86UE8)
T20 construct: purchased DiscoveRx KINOMEscan

[21] = molecular target: T21, EGFR(L747-S752del, P753S) (Homo sapiens, UniProt P00533, DEL747-752/P753S)
T21 construct: purchased DiscoveRx KINOMEscan

[22] = molecular target: T22, EGFR(T790M) (Homo sapiens, UniProt P00533, T790M)
T22 construct: purchased DiscoveRx KINOMEscan

[23] = molecular target: T23, PIK3CA(H1047Y) (Homo sapiens, UniProt P42336, H1047Y)
T23 construct: purchased DiscoveRx KINOMEscan

[24] = molecular target: T24, LYN (Homo sapiens, UniProt P07948)
T24 construct: purchased DiscoveRx KINOMEscan

[25] = molecular target: T25, BRAF (Homo sapiens, UniProt P15056)
T25 construct: purchased DiscoveRx KINOMEscan

[26] = molecular target: T26, TNK2 (Homo sapiens, UniProt Q07912)
T26 construct: purchased DiscoveRx KINOMEscan

[27] = molecular target: T27, MLK2 (Homo sapiens, UniProt Q02779)
T27 construct: purchased DiscoveRx KINOMEscan

[28] = molecular target: T28, PLK3 (Homo sapiens, UniProt Q9H4B4)
T28 construct: purchased DiscoveRx KINOMEscan

[29] = molecular target: T29, DCAMKL2 (Homo sapiens, UniProt Q8N568)
T29 construct: purchased DiscoveRx KINOMEscan

[30] = molecular target: T30, MEK5 (Homo sapiens, UniProt Q13163)
T30 construct: purchased DiscoveRx KINOMEscan

[31] = molecular target: T31, MTOR (Homo sapiens, UniProt P42345)
T31 construct: purchased DiscoveRx KINOMEscan

[32] = molecular target: T32, NEK5 (Homo sapiens, UniProt Q6P3R8)
T32 construct: purchased DiscoveRx KINOMEscan

[33] = test system: EGFR(L747-T751del,Sins)
[34] = molecular target: T33, YSK1 (Homo sapiens, UniProt O00506)
T33 construct: purchased DiscoveRx KINOMEscan

[35] = molecular target: T34, MKNK2 (Homo sapiens, UniProt Q9HBH9)
T34 construct: purchased DiscoveRx KINOMEscan

[36] = molecular target: T35, GRK7 (Homo sapiens, UniProt Q8WTQ7)
T35 construct: purchased DiscoveRx KINOMEscan

[37] = molecular target: T36, SRPK2 (Homo sapiens, UniProt P78362)
T36 construct: purchased DiscoveRx KINOMEscan

[38] = molecular target: T37, LRRK2(G2019S) (Homo sapiens, UniProt Q5S007, G2019S)
T37 construct: purchased DiscoveRx KINOMEscan

[39] = molecular target: T38, PIK3CG (Homo sapiens, UniProt P48736)
T38 construct: purchased DiscoveRx KINOMEscan

[40] = molecular target: T39, MST1R (Homo sapiens, UniProt Q04912)
T39 construct: purchased DiscoveRx KINOMEscan

[41] = molecular target: T40, ABL1(Q252H)-nonphosphorylated (Homo sapiens, UniProt P00519, Q252H)
T40 construct: purchased DiscoveRx KINOMEscan

[42] = molecular target: T41, ERK8 (Homo sapiens, UniProt Q8TD08)
T41 construct: purchased DiscoveRx KINOMEscan

[43] = molecular target: T42, DYRK1A (Homo sapiens, UniProt Q13627)
T42 construct: purchased DiscoveRx KINOMEscan

[44] = molecular target: T43, MLCK (Homo sapiens, UniProt Q32MK0)
T43 construct: purchased DiscoveRx KINOMEscan
T43 sequence (Q32MK0 whole entry): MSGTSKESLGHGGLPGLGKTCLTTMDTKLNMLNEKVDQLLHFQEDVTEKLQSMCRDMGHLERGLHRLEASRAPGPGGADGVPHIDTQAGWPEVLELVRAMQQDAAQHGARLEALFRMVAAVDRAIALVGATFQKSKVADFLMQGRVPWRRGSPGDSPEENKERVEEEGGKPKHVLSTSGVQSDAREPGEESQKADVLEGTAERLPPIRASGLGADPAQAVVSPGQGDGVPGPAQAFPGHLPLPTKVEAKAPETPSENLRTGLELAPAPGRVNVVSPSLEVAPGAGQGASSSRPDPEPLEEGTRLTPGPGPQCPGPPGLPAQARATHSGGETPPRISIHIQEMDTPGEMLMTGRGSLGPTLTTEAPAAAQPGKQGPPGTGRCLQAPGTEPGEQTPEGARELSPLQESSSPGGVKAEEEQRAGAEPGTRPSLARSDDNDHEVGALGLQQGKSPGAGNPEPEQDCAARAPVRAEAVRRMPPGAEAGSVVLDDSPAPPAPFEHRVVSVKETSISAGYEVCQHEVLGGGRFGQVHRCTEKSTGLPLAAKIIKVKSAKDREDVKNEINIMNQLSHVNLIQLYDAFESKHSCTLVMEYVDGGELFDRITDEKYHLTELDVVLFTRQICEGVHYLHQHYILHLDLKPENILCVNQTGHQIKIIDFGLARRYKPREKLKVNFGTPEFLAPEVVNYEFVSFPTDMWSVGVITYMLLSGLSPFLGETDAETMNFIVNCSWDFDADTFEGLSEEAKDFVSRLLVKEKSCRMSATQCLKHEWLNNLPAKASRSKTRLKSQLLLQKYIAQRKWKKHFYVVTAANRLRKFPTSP

T39 sequence (Q04912 25-1400): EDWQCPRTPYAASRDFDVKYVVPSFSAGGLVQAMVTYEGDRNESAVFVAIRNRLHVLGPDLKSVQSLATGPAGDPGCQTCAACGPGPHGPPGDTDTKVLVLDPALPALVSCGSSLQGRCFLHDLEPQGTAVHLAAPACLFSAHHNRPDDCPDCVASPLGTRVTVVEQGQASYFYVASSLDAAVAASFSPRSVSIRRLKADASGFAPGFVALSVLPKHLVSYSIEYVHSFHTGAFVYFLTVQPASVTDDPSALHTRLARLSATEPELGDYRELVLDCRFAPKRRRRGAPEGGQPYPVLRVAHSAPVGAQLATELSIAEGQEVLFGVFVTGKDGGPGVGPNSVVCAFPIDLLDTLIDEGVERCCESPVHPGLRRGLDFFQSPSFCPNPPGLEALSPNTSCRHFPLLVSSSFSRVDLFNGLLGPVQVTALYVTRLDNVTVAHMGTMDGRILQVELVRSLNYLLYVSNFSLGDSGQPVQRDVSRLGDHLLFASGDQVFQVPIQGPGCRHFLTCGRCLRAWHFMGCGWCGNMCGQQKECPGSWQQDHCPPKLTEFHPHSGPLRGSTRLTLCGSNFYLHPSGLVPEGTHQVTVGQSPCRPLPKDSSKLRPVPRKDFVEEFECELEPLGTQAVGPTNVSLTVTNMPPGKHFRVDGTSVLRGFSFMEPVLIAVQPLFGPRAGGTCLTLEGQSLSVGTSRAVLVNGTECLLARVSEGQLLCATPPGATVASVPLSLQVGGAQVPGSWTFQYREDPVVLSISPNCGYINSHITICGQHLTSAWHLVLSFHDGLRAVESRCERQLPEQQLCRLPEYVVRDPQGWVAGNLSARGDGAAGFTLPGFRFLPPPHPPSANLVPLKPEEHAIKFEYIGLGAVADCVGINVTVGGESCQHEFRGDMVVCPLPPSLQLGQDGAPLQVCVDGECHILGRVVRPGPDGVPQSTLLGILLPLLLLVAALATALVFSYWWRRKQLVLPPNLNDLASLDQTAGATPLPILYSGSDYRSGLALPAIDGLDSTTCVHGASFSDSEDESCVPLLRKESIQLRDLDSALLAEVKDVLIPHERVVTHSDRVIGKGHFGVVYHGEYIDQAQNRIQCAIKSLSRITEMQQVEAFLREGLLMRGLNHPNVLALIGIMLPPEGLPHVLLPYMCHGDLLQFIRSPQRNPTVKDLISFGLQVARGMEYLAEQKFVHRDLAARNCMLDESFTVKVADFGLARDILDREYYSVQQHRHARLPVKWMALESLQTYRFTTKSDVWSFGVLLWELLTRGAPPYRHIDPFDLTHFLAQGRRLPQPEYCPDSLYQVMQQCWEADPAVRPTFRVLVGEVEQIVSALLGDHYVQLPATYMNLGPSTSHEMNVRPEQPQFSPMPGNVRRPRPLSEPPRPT
T30 sequence (Q13163 whole entry): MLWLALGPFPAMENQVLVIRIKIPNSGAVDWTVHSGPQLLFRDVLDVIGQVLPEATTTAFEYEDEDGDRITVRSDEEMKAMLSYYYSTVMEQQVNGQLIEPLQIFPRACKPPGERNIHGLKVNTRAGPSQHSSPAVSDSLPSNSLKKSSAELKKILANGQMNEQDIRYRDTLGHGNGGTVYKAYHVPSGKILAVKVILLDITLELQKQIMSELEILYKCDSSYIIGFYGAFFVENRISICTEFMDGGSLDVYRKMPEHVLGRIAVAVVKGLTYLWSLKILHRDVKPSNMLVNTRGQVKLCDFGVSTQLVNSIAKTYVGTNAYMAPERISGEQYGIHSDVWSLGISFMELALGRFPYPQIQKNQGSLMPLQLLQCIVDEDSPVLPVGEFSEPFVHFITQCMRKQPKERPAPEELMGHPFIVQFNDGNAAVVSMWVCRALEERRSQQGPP
T32 sequence (Q6P3R8 whole entry): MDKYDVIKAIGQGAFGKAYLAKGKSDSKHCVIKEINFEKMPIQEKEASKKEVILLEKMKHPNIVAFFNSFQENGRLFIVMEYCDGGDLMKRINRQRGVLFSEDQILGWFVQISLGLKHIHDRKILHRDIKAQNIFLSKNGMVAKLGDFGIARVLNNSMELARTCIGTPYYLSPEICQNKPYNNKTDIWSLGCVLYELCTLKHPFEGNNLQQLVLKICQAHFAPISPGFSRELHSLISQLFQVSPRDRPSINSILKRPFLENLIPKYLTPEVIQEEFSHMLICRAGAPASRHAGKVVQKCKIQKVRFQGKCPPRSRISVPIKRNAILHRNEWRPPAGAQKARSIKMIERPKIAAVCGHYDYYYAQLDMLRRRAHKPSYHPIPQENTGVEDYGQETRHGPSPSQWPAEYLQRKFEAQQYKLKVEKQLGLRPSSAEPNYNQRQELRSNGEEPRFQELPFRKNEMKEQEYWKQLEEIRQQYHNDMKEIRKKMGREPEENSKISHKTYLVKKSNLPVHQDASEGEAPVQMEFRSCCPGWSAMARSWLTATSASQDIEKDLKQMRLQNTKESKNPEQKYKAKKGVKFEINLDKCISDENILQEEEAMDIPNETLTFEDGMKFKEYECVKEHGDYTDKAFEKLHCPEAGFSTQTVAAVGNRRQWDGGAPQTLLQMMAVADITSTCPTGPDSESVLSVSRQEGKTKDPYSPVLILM
T21 sequence (P00533 with tags, fused parts or gaps DEL747-752/P753S limits assumed): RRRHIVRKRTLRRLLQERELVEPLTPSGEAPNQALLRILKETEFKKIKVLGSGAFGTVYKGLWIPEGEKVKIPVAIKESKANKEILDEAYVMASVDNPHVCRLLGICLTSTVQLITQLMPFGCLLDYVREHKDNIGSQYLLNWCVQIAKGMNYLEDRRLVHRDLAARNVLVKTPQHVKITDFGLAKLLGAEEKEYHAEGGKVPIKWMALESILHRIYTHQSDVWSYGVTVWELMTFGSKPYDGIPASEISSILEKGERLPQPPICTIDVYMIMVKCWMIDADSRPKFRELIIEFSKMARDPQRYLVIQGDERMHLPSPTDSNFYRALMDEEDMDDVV
T27 sequence (Q02779 whole entry): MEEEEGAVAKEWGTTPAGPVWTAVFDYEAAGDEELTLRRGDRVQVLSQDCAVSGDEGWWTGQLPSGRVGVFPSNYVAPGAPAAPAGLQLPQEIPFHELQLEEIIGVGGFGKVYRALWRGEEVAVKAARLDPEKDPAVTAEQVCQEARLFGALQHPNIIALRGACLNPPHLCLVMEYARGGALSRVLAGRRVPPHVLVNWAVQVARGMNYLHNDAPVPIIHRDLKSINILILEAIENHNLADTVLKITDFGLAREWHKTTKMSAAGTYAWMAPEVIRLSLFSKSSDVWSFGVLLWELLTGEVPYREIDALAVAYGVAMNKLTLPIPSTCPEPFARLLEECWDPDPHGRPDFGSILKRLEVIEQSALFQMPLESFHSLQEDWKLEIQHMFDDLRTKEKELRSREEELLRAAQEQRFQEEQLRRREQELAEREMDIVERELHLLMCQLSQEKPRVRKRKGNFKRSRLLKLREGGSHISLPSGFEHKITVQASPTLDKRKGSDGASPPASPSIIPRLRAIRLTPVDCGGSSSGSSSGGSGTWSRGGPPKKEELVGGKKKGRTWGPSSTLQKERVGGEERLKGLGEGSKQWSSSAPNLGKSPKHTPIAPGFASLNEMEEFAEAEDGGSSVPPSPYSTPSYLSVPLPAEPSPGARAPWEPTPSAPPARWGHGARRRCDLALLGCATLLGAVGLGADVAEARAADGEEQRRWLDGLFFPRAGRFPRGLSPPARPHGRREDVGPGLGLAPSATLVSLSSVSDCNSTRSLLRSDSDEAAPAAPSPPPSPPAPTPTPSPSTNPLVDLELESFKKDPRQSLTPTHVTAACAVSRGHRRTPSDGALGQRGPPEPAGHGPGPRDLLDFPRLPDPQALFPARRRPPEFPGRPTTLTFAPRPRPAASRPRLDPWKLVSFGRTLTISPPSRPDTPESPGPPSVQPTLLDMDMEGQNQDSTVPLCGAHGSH
T18 sequence (O14733 whole entry): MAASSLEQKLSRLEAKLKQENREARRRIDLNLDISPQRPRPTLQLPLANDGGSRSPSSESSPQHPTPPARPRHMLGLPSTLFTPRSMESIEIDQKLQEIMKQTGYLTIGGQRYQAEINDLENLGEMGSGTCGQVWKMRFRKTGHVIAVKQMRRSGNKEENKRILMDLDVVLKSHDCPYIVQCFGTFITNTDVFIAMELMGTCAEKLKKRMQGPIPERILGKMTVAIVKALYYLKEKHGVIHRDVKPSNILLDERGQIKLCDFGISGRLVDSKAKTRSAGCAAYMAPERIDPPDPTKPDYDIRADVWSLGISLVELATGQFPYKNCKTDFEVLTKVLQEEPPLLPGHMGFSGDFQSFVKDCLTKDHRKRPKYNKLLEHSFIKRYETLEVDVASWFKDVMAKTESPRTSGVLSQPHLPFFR

## Cc1nc(NC(=O)[C@@H](N)C(C)C)sc1-c1cnc(Cl)c(NS(=O)(=O)c2ccccc2)c1 [PI3KD-IN-015]
[1]
  KinomeScan BRAF(V600E): 100
[2]
  KinomeScan MEK2: 94
[3]
  KinomeScan SRC: 91
[4]
  KinomeScan DDR1: 100
[5]
  KinomeScan CSNK1G3: 96
[6]
  KinomeScan ERK5: 100
[7]
  KinomeScan VEGFR2: 99
[8]
  KinomeScan PIK3CA(Q546K): 4.1
[9]
  KinomeScan HIPK3: 100
[10]
  KinomeScan LZK: 92
[11]
  KinomeScan GAK: 100
[12]
  KinomeScan CDK11: 100
[13]
  KinomeScan TNK1: 100
[14]
  KinomeScan CAMK4: 89
[15]
  KinomeScan YANK1: 100
[16]
  KinomeScan p38-delta: 98
[17]
  KinomeScan TGFBR2: 100
[18]
  KinomeScan MKK7: 98
[19]
  KinomeScan DAPK1: 98
[20]
  KinomeScan TLK2: 100
[21]
  KinomeScan EGFR(L747-S752del, P753S): 100
[22]
  KinomeScan EGFR(T790M): 70
[23]
  KinomeScan PIK3CA(H1047Y): 4.4
[24]
  KinomeScan LYN: 100
[25]
  KinomeScan BRAF: 93
[26]
  KinomeScan TNK2: 100
[27]
  KinomeScan MLK2: 89
[28]
  KinomeScan PLK3: 76
[29]
  KinomeScan DCAMKL2: 100
[30]
  KinomeScan MEK5: 94
[31]
  KinomeScan MTOR: 28
[32]
  KinomeScan NEK5: 100
[33]
  KinomeScan EGFR(L747-T751del,Sins): 100
[34]
  KinomeScan YSK1: 100
[35]
  KinomeScan MKNK2: 98
[36]
  KinomeScan GRK7: 97
[37]
  KinomeScan SRPK2: 100
[38]
  KinomeScan LRRK2(G2019S): 100
[39]
  KinomeScan PIK3CG: 0.05
[40]
  KinomeScan MST1R: 86
[41]
  KinomeScan ABL1(Q252H)-nonphosphorylated: 100
[42]
  KinomeScan ERK8: 98
[43]
  KinomeScan DYRK1A: 89
[44]
  KinomeScan MLCK: 95
